In PubChem BioAssay AID2060497 (Molecular Pharmacology Branch, DTP, NCI, 2025):
Values joined by “and” are separate entries in the source; they are usually repeats but may differ in a detail not shown here. Equal values may be shown once.

Test system: 317291-083-R-J1-PDC complex spheroids, viability
Assay: Anticancer human tumor 317291-083-R-J1-PDC patient-derived soft tissue sarcoma cell line growth inhibition [GQUAD]
Conditions: for viability, T/C: stronger effect = lower value
Excerpt: DNA G-quadruplex Stabilizer Agents in Combinations in Complex Spheroids
A high-throughput screen of multi-cell type tumor spheroids was designed to identify active combinations of DNA G-quadruplex stabilizer agents and targeted small molecules. Complex spheroids include a stromal component modeled by human endothelial cells (HUVEC) and fibroblasts modeled by human mesenchymal stem cells (MSCs). The concentration ranges selected for each drug and investigational agent were based upon clinically achievable concentrations if the clinical Cmax of the agent was known.
Compounds. The drugs and investigational agents: pidnarulex (CX-5461; NSC782164), APTO-253 (NSC789042), BRACO-19 (NSC847499), peposertib (NSC802822), ceralasertib (NSC780249), elimusertib (NSC800525), camonsertib (NSC841442), AZD-1390 (NSC803789), olaparib (NSC753686), talazoparib (NSC767125), ART-558 (NSC835418), sotorasib (NSC818433), MRTX-1133 (NSC836407), SN-38 (NSC673596), topotecan (NSC609699), etoposide (NSC141540), doxorubicin (NSC123127), gemcitabine (NSC613327), 5-fluorouracil (NSC19893), paclitaxel (NSC125973), vemurafenib (NSC761431), panobinostat (NSC761190), R-306465 (JNJ-16241199; NSC773264), adavosertib (NSC754352), TP-3654 (NSC805149), carboplatin (NSC241240), KSQ-4279 (NSC840948), and staurosporine (NSC755774) were obtained from the National Cancer Institute (NCI) Developmental Therapeutics Program Chemical Repository (34). The FDA-approved anticancer drug set is available from the NCI Developmental Therapeutics Program. […] The stock solutions were prepared in dimethyl sulfoxide (DMSO, Sigma-Aldrich, St. Louis, MO, cat. D2650) at 800-fold the tested concentration and stored at -70 degrees C prior to their use. All drugs and investigational agents were tested over a range starting from a high concentration at or near the clinical Cmax and decreasing in half-log increments. If the clinical Cmax for an agent had not been determined, the highest concentration tested was 10 microM.
2.3 Cell Culture. All cells were maintained in an incubator at 37 degrees C and 5% CO2 with 95% humidity. The PDC lines were cultured according to standard operating procedures established by the NCI PDMR. All PDCs were thawed and cultured in Matrigel-coated flasks prepared with a working solution of 1X Ham's F-12 nutrient mix, without supplementation (Invitrogen, cat. 11765054), 100 U/mL penicillin-streptomycin (Invitrogen, cat. 15140122), and 2.5% Matrigel (Corning Inc., cat. 354248) for the first three passages. The 857933-349-R-J2-PDC line was cultured in 6C/Colon 1B media, which includes advanced DMEM/F-12 (Thermo Fisher Scientific, cat. 12634028), 10 mM HEPES (Thermo Fisher Scientific, cat. 15630080), 1X GlutaMAX supplement (Thermo Fisher Scientific, cat. 35050061), 0.1 mg/mL primocin (InvivoGen, cat. ant-pm-2), 10% defined fetal bovine serum, heat inactivated (HyClone Laboratories Inc., cat. SH30070.03HI), 50% L-WRN conditioned media (ATCC, cat. CRL-3276), 1.25 mM N-Acetyl-L-cysteine (Sigma-Aldrich, cat. A9165), 10 mM nicotinamide (Sigma-Aldrich, cat. N0636), 1X B-27 supplement (Thermo Fisher Scientific, cat. 17504044), 1X N-2 supplement (Thermo Fisher Scientific, cat. 17502048), 10 microM Y-27632 dihydrochloride (Tocris Bioscience, cat. 1254), and 50 ng/mL human EGF recombinant protein (Thermo Fisher Scientific, cat. PHG0311). The 485176-168-R4-J1-PDC line was cultured in Panc media, which includes all 6C/Colon 1B media components plus 100 ng/mL human FGF-10 (Thermo Fisher Scientific, cat. 100-26), 500 nM SB-431542 (Selleckchem, cat. S1067), and gastrin (Tocris, cat. 3006).
[…]

[1] = curve of first compound, second compound 0.0316 µM
[2] = curve of first compound, second compound 0.1 µM
[3] = curve of first compound, second compound 0.316 µM
[4] = curve of first compound, second compound 1 µM
[5] = curve of first compound, second compound 3.16 µM
[6] = curve of first compound, second compound 10 µM
[7] = second compound 0.0316 µM, first compound 0.0316 µM
[8] = second compound 0.0316 µM, first compound 0.1 µM
[9] = second compound 0.0316 µM, first compound 0.316 µM
[10] = second compound 0.0316 µM, first compound 1 µM
[11] = second compound 0.0316 µM, first compound 3.16 µM
[12] = second compound 0.0316 µM, first compound 10 µM
[13] = second compound 0.1 µM, first compound 0.0316 µM
[14] = second compound 0.1 µM, first compound 0.1 µM
[15] = second compound 0.1 µM, first compound 0.316 µM
[16] = second compound 0.1 µM, first compound 1 µM
[17] = second compound 0.1 µM, first compound 3.16 µM
[18] = second compound 0.1 µM, first compound 10 µM
[19] = second compound 0.316 µM, first compound 0.0316 µM
[20] = second compound 0.316 µM, first compound 0.1 µM
[21] = second compound 0.316 µM, first compound 0.316 µM
[22] = second compound 0.316 µM, first compound 1 µM
[23] = second compound 0.316 µM, first compound 3.16 µM
[24] = second compound 0.316 µM, first compound 10 µM
[25] = second compound 1 µM, first compound 0.0316 µM
[26] = second compound 1 µM, first compound 0.1 µM
[27] = second compound 1 µM, first compound 0.316 µM
[28] = second compound 1 µM, first compound 1 µM
[29] = second compound 1 µM, first compound 3.16 µM
[30] = second compound 1 µM, first compound 10 µM
[31] = second compound 3.16 µM, first compound 0.0316 µM
[32] = second compound 3.16 µM, first compound 0.1 µM
[33] = second compound 3.16 µM, first compound 0.316 µM
[34] = second compound 3.16 µM, first compound 1 µM
[35] = second compound 3.16 µM, first compound 3.16 µM
[36] = second compound 3.16 µM, first compound 10 µM
[37] = second compound 10 µM, first compound 0.0316 µM
[38] = second compound 10 µM, first compound 0.1 µM
[39] = second compound 10 µM, first compound 0.316 µM
[40] = second compound 10 µM, first compound 1 µM
[41] = second compound 10 µM, first compound 3.16 µM
[42] = second compound 10 µM, first compound 10 µM
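Also: spheroids exposed to compounds for one week before readout.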
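For viability, T/C in this document: percent viability relative to DMSO vehicle wells taken as 100%.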

COc1ccc([C@@H](O)c2cc(-c3ncnc4cc(N5CCOCC5)ccc34)c(F)cc2Cl)nn1 + Cc1cnc(CNC(=O)c2c(=O)c3ccc(N4CCCN(C)CC4)nc3n3c2sc2ccccc23)cn1
IC50 [1]: 2.03 µM | IC50 [2]: 0.163 µM | IC50 [3]: 0.0619 µM | IC50 [4]: < 0.0316 µM | IC50 [5]: < 0.0316 µM | IC50 [6]: < 0.0316 µM | viability, T/C [7]: 108% | viability, T/C [8]: 92.1% | viability, T/C [9]: 68.2% | viability, T/C [10]: 66.6% | viability, T/C [11]: 41.5% | viability, T/C [12]: 30.7% | viability, T/C [13]: 85.9% | viability, T/C [14]: 50.3% | viability, T/C [15]: 49.4% | viability, T/C [16]: 35.1% | viability, T/C [17]: 24.1% | viability, T/C [18]: 31.8% | viability, T/C [19]: 58.2% | viability, T/C [20]: 42.9% | viability, T/C [21]: 38.1% | viability, T/C [22]: 22.4% | viability, T/C [23]: 24.2% | viability, T/C [24]: 19.8% | viability, T/C [25]: 41% | viability, T/C [26]: 25.3% | viability, T/C [27]: 19.6% | viability, T/C [28]: 23.4% | viability, T/C [29]: 33.7% | viability, T/C [30]: 22.7% | viability, T/C [31]: 40.1% | viability, T/C [32]: 41.4% | viability, T/C [33]: 19.8% | viability, T/C [34]: 20.6% | viability, T/C [35]: 23% | viability, T/C [36]: 16.9% | viability, T/C [37]: 19.1% | viability, T/C [38]: 40.8% | viability, T/C [39]: 17.7% | viability, T/C [40]: 17.3% | viability, T/C [41]: 18.6% | viability, T/C [42]: 19.9%

C#Cc1c(F)ccc2cc(O)cc(-c3ncc4c(N5CC6CCC(C5)N6)nc(OCC56CCCN5CC(F)C6)nc4c3F)c12 (stereo unspecified) + CN(C)c1ccc(Nc2c3ccc(NC(=O)CCN4CCCC4)cc3nc3cc(NC(=O)CCN4CCCC4)ccc23)cc1
IC50 [1]: 5.66 µM | IC50 [2]: 5.14 µM | IC50 [3]: 1.01 µM | IC50 [4]: < 0.0316 µM | IC50 [5]: < 0.0316 µM | IC50 [6]: < 0.0316 µM | viability, T/C [7]: 111% | viability, T/C [8]: 90.8% | viability, T/C [9]: 106% | viability, T/C [10]: 107% | viability, T/C [11]: 68% | viability, T/C [12]: 32.4% | viability, T/C [13]: 91.3% | viability, T/C [14]: 98.9% | viability, T/C [15]: 89.5% | viability, T/C [16]: 86.2% | viability, T/C [17]: 64.8% | viability, T/C [18]: 29.6% | viability, T/C [19]: 72.7% | viability, T/C [20]: 74.4% | viability, T/C [21]: 62.9% | viability, T/C [22]: 49.9% | viability, T/C [23]: 47.9% | viability, T/C [24]: 42.1% | viability, T/C [25]: 46.9% | viability, T/C [26]: 35% | viability, T/C [27]: 27.5% | viability, T/C [28]: 19.7% | viability, T/C [29]: 17.1% | viability, T/C [30]: 0.42% | viability, T/C [31]: 5.12% | viability, T/C [32]: 2.52% | viability, T/C [33]: 4.56% | viability, T/C [34]: 2.64% | viability, T/C [35]: 1.07% | viability, T/C [36]: 0.36% | viability, T/C [37]: 0.32% | viability, T/C [38]: 0.73% | viability, T/C [39]: 0.29% | viability, T/C [40]: 0.39% | viability, T/C [41]: 0.24% | viability, T/C [42]: 0.39%

Cc1[nH]c2ccccc2c1CCNCc1ccc(/C=C/C(=O)NO)cc1
viability, T/C (compound 0.000999 µM): 108% and 109% and 114% | viability, T/C (compound 0.00316 µM): 92% and 89.5% and 96.1% | viability, T/C (compound 0.00999 µM): 106% and 110% and 105% | viability, T/C (compound 0.0316 µM): 62.6% and 80.2% and 99% | viability, T/C (compound 0.0999 µM): 8.77% and 22.1% and 21.3% | viability, T/C (compound 0.316 µM): 0.25% and 0.09% and 0.84% | IC50 (curve of compound): 0.0414 µM and 0.0579 µM and 0.0653 µM
